# Measured values: ChEMBL document CHEMBL1131993, “Binding affinities of 3-(3-phenylisoxazol-5-yl)methylidene-1-azabicycles to acetylcholine receptors” (Bioorg Med Chem Lett, 1999)
# Columns and labels:
# [1] = target: T1, Neuronal acetylcholine receptor subunit alpha-7 (Rattus norvegicus, UniProt Q05941); assay: Compound was tested for its binding affinity against nicotinic receptor in synaptic membrane fractions from rat cerebral cortices.; type: cell membranes
# [2] = target: T2, Muscarinic acetylcholine receptor M1 (Homo sapiens, UniProt P11229); assay: Compound was tested for its binding affinity against M1 human recombinant muscarinic receptor in CHO cells.; type: cell-based
# T2 sequence (P11229 whole entry): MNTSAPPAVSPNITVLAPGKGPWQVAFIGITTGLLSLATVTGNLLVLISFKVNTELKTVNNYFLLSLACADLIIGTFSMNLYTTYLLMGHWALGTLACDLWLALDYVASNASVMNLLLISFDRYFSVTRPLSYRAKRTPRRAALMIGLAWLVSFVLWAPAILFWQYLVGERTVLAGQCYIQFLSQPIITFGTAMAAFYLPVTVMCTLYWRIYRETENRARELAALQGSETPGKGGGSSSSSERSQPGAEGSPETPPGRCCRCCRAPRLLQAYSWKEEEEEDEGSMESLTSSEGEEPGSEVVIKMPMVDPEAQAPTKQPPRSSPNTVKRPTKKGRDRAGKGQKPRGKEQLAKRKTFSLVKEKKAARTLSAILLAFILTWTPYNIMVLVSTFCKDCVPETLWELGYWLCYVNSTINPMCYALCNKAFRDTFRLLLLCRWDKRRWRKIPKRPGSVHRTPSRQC
# [3] = target: Muscarinic acetylcholine receptor M3 (Homo sapiens) (UniProt P20309); assay: Ability to displace [3H]N-methylscopolamine binding to M3 human recombinant muscarinic receptor in CHO cells at concentration 10 uM; type: cell-based
# Chain of Muscarinic acetylcholine receptor M3 (Homo sapiens) (P20309 whole entry, looked up): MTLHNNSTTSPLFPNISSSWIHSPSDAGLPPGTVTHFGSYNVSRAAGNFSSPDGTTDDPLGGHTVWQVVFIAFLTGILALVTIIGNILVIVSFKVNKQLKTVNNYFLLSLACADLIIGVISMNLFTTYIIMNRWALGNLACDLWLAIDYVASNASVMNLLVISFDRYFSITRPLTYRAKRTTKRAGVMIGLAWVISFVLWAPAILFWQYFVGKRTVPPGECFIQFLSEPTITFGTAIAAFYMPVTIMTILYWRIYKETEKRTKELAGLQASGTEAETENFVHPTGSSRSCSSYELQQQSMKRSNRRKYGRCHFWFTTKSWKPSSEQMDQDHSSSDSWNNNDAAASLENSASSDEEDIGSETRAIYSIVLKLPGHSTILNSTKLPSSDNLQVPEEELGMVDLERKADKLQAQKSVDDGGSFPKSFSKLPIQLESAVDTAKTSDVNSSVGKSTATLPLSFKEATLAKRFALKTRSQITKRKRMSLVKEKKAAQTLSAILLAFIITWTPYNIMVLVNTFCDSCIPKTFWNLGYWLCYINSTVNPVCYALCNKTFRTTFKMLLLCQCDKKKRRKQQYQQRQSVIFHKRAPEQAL
# [4] = target: Neuronal acetylcholine receptor; assay: The compound was tested for its binding affinity against Nicotinic acetylcholine receptor in synaptic membrane fractions from rat cerebral cortices.; type: cell membranes
# [5] = target: T3, Muscarinic acetylcholine receptor M2 (Homo sapiens) (UniProt P08172); assay: Ability to displace [3H]N-methylscopolamine binding to M2 human recombinant muscarinic receptor in CHO cells at concentration 10 uM; type: cell-based
# T3 sequence (whole entry): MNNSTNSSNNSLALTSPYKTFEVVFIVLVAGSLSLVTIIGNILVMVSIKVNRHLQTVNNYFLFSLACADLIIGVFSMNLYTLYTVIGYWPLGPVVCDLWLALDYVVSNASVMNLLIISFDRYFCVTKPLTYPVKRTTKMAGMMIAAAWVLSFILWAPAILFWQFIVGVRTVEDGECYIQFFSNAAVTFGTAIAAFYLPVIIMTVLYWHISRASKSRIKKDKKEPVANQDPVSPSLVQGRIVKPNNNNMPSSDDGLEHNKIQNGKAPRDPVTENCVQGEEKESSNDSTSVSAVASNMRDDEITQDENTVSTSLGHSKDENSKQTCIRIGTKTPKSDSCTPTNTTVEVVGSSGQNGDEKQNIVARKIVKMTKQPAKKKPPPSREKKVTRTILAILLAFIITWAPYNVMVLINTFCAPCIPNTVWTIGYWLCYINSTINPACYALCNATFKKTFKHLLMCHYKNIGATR
# [6] = target: T4, Muscarinic acetylcholine receptor M1 (Homo sapiens) (UniProt P11229); assay: Ability to displace [3H]N-methylscopolamine binding to M1 human recombinant muscarinic receptor in CHO cells at concentration 10 uM; type: cell-based
# T4 sequence (whole entry): T2 sequence (P11229 whole entry)
# [7] = target: T3, Muscarinic acetylcholine receptor M2 (Homo sapiens); assay: Ability to displace [3H]N-methylscopolamine binding to M2 human recombinant muscarinic receptor in CHO cells at concentration 1 uM; type: cell-based
# [8] = target: Muscarinic acetylcholine receptor M3 (Homo sapiens) (UniProt P20309); assay: Ability to displace [3H]N-methylscopolamine binding to M3 human recombinant muscarinic receptor in CHO cells at concentration 1 uM; type: cell-based
# [9] = target: T4, Muscarinic acetylcholine receptor M1 (Homo sapiens); assay: Ability to displace [3H]N-methylscopolamine binding to M1 human recombinant muscarinic receptor in CHO cells at concentration 1 uM; type: cell-based
# [10] = target: T5, Acetylcholine receptor subunit delta (Torpedo californica) (UniProt P02718); assay: Ability to displace [3H]cytisine binding to Nicotinic acetylcholine receptor in synaptic membrane fractions from rat cerebral cortices at a concentration of 10 uM.; type: cell membranes; settings: target entry is the homologue from another species
# T5 sequence (whole entry): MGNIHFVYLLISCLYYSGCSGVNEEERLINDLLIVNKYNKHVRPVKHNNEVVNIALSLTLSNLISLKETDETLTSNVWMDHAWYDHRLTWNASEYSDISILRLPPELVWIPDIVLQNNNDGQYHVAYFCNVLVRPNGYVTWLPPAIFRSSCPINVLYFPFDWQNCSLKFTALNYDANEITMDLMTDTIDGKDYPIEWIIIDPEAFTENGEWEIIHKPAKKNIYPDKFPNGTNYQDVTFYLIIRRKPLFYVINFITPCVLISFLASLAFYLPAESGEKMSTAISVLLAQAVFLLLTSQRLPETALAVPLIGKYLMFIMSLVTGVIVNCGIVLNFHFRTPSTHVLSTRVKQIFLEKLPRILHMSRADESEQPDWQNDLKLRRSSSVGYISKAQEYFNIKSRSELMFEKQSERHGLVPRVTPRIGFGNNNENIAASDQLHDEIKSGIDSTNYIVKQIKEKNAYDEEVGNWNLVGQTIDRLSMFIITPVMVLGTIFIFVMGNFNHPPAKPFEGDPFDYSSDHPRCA
# [11] = target: Neuronal acetylcholine receptor (Rattus norvegicus) (UniProt P04757+P09483+P12389+P12390+P12392+P43144+Q9JLB5+P12391+P43143+P20420+Q05941); assay: Ability to displace [3H]cytisine binding to nicotinic receptor in synaptic membrane fractions from rat cerebral cortices at a concentration of 10 uM.; type: cell membranes
# [12] = target: T1, Neuronal acetylcholine receptor subunit alpha-7; assay: The compound was tested for its binding affinity against nicotinic receptor in synaptic membrane fractions from rat cerebral cortices.; type: cell membranes
# T1 sequence (Q05941 whole entry): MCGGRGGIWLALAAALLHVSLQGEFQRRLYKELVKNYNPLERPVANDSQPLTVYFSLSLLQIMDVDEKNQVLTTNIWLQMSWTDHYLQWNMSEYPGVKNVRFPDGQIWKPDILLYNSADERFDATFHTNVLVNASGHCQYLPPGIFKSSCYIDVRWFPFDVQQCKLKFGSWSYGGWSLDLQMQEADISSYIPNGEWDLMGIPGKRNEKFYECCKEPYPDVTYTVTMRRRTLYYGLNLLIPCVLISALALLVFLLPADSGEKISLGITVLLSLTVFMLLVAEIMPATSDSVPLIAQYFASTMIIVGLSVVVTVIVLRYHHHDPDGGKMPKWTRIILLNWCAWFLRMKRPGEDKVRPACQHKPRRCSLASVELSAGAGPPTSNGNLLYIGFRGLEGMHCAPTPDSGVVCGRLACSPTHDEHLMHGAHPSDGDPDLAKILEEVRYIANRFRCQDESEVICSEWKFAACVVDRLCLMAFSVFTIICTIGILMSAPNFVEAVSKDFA
compound,measurement,setting,value
Cc1cc(/C=C2\CN3CCC2CC3)on1,IC50,[1],12 nM
same,IC50,[2],~10000 nM
Oc1ccc(-c2cc(/C=C3/CN4CCC3CC4)on2)cc1O,inhibition,[3],39%
same,IC50,[4],486 nM
same,inhibition,[5],43%
same,inhibition,[6],59%
same,inhibition,[7],12%
same,inhibition,[8],5%
same,inhibition,[9],13%
same,inhibition,[10],95%
Oc1ccc(-c2cc(/C=C3\CN4CCC3CC4)on2)cc1O,inhibition,[3],0%
same,inhibition,[5],7%
same,inhibition,[6],8%
same,inhibition,[7],0%
same,inhibition,[8],0%
same,inhibition,[9],0%
same,inhibition,[10],88%
Oc1ccc(-c2cc(/C=C3/CN4CCC3CC4)on2)cc1,inhibition,[3],14%
same,inhibition,[11],93%
same,inhibition,[5],17%
same,inhibition,[6],65%
same,inhibition,[7],3%
same,inhibition,[8],3%
same,inhibition,[9],6%
same,IC50,[12],695 nM
N#Cc1ccc(-c2cc(/C=C3/CN4CCC3CC4)on2)cc1,inhibition,[3],26%
same,inhibition,[11],92%
same,inhibition,[5],23%
same,inhibition,[6],61%
same,inhibition,[7],0%
same,inhibition,[8],1%
same,inhibition,[9],11%
same,IC50,[12],803 nM
N#Cc1ccc(-c2cc(/C=C3\CN4CCC3CC4)on2)cc1,inhibition,[3],31%
same,inhibition,[11],83%
same,inhibition,[5],32%
same,inhibition,[6],22%
same,inhibition,[7],6%
same,inhibition,[8],9%
same,inhibition,[9],2%
same,IC50,[12],> 10 nM
Nc1ccc(-c2cc(/C=C3/CN4CCC3CC4)on2)cc1,inhibition,[3],19%
same,IC50,[4],709 nM
same,inhibition,[5],30%
same,inhibition,[6],86%
same,inhibition,[7],5%
same,inhibition,[8],1%
same,inhibition,[9],33%
same,inhibition,[10],94%
